Test results as given in patent US12552824B2, “C-mannoside compounds useful for the treatment of urinary tract infections” (GLAXOSMITHKLINE INTELLECTUAL PROPERTY DEVELOPMENT LIMITED, priority 2018, dated 2026).

Assays:
[1] = Rat pharmacokinetics: IV infusion 1 mg/kg, then PO 5 mg/kg; blood and urine by LC-MS/MS; type: in vivo, Male Wistar Han rats; conditions: for bioavailability: male, Wistar Han; for bioavailability / AUC: whole blood; for bioavailability / % F: oral bioavailability, ratio of dose-normalised AUC PO (5 mg/kg) and IV infusion (1 mg/kg); for Ue % po: percentage of oral dose (5 mg/kg) eliminated unchanged in urine; for AUC: area under blood concentration-time profile, PO 5 mg/kg, male Wistar Han rats, n = 3
Excerpt: General Assays for Obtaining AUC Oral h*μm, % F, and Ue % PO Values
Male Wistar Han rats were purchased from Vital River Laboratory Animal Technology Co. Ltd (Beijing, China). The animals were approx. 6-8 weeks old with body weights of 200-300 g on the dosing date. The animals were housed in a 12-hour light/12-hour dark cycle environment and had free access to food and water. All animals were fed prior to dosing. Studies were approved by the Pharmaron Institutional Animal Care and Use Committee (IACUC).
Test article was administered as an intravenous infusion for 1 hour (1 mg/kg) at 5 mL/kg/h. After 48 h, animals received a single oral dose (5 mg/kg, free form) at a dose volume of 10 mL/kg, respectively. Blood samples were collected at various time points after IV infusion and PO administrations. Urine samples were collected at various time points after IV infusion and PO administrations.
Test article was dissolved in DMSO with vortexing and sonification to obtain a stock solution. An aliquot of the stock solution was mixed with 10% HP-β-CD in saline with vortexing to obtain a solution with concentration at 0.2 mg/mL of test article.
Test article was added into 1% Methyl Cellulose with vortexing and sonication to obtain a homogeneous suspension with concentration at 0.5 mg/mL of test article.
For IV infusion (1 mg/kg) administration, blood samples were collected from each animal at 0, 0.25, 0.5, 0.75, 1, 1.08, 1.25, 1.5, 1.75, 2, 3, 5, 8, 12, 24 hour post-dose.
For PO (5 mg/kg) administration, blood samples were collected from each animal at 0, 0.25, 0.5, 1, 1.5, 2, 3, 4, 6, 8, 12, 24 hour post-dose.
Blood samples (50 μL) were collected from each animal via jugular vein. These blood samples were placed into tubes containing K2EDTA. Whole blood was mixed with same volume of water and inverted several times. The blood samples were stored at −75±15° C. until analysis.
For IV infusion (1 mg/kg) administration, urine samples were collected from each animal at 0-4, 4-8, 8-12, 12-24 hour post-dose.
For PO (5 mg/kg) administration, urine samples were collected from each animal at 0-4, 4-8, 8-12, 12-24 hour post-dose.
Urine samples were collected continuously into containers maintained over dry ice at the intervals outlined below and stored at −80° C. prior to analysis.
55 μL of standards, 55 μL of QC samples or 55 μL of unknown samples (50 μL of blood or urine with 5 μL 50% acetonitrile) were mixed to 200 μL of acetonitrile containing IS (dexamethasone) to precipitate proteins. Then the samples were vortexed for 30 sec. After centrifugation at 4° C., 4700 rpm for 30 min, and 5 μL of the supernatant was injected into the LC-MS/MS system for quantitative analysis.
Test article blood and urine concentrations for each animal following IV infusion at 1 mg/kg and PO at 5 mg/kg were used to calculate pharmacokinetic parameters by employing a non-compartmental analysis (Phoenix™ WinNonlin® 7.0). The linear trapezoidal algorithm was used for AUC calculation.

[2] = target: T1, FimH (Escherichia coli, UniProt Q1R2J4); type: cell-based; conditions: concentration reducing bacterial agglutination of guinea pig red blood cells by greater than 90%; UTI89 bacteria;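 also: concentration in nM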
T1 construct: endogenous in cells; host or cells: E. coli UTI89 whole bacteria, agglutinating guinea pig red blood cells
Procedure: Hemagglutination Inhibition Assay (HAI)
The hemagglutination inhibition (HAI) assay was performed with UTI89 bacteria and guinea pig red blood cells, as previously described (S. J. Hultgren, W. R. Schwan, A. J. Schaeffer, J. L. Duncan Infect. Immun. 1986, 54, 613-620 and Jarvis, C.; Han, Z.; Kalas, V.; Klein, R.; Pinkner, J. S.; Ford, B.; Binkley, J.; Cusumano, C. K.; Cusumano, Z.; Mydock-McGrane, L.; Hultgren, S. J.; Janetka, J. W., ChemMedChem 2016, 11, 367-373).

In the case of `C=Cc1c(F)cc(-c2ccc([C@@H](O)[C@H]3O[C@H](CO)[C@@H](O)[C@H](O)[C@@H]3O)c(C)c2)cc1F` [Example 4, (2R,3S,4S,5S,6R)-2-((R)-(3′,5′-Difluoro-3-methyl-4′-vinyl-[1,1′-biphenyl]-4-yl)(hydroxy)methyl)-6-(hydroxymethyl)tetrahydro-2H-pyran-3,4,5-triol], the bioavailability [1] was 10 to 30%, the Ue % po [1] was ““++” (0.5 <= x <= 5%)” and the AUC [1] was under 0.5 µM·h. For the same compound, the “HAI titer EC > 90” value [2] was ““++++” (<50 “++++”)”.

With `Cc1cc(-c2ccc(C(F)(F)F)c(F)c2)ccc1[C@@H](O)[C@H]1O[C@H](CO)[C@@H](O)[C@H](O)[C@@H]1O` [Example 5, (2R,3S,4S,5S,6R)-2-((R)-(3′-Fluoro-3-methyl-4′-(trifluoromethyl)-[1,1′-biphenyl]-4-yl)(hydroxy)methyl)-6-(hydroxymethyl)tetrahydro-2H-pyran-3,4,5-triol] the bioavailability [1] was 10 to 30%, the Ue % po [1] was ““++” (0.5 <= x <= 5%)” and the AUC [1] was 0.5 to 1 µM·h. The “HAI titer EC > 90” value [2] was ““++++” (<50 “++++”)”.

With `Cc1cc(-c2cc(F)cc(C(F)(F)F)c2)ccc1[C@@H](O)[C@H]1O[C@H](CO)[C@@H](O)[C@H](O)[C@@H]1O` [Example 6, (2R,3S,4S,5S,6R)-2-((R)-(3′-Fluoro-3-methyl-5′-(trifluoromethyl)-[1,1′-biphenyl]-4-yl)(hydroxy)methyl)-6-(hydroxymethyl)tetrahydro-2H-pyran-3,4,5-triol] the bioavailability [1] was 10 to 30%, the Ue % po [1] was ““++” (0.5 <= x <= 5%)” and the AUC [1] was under 0.5 µM·h. The “HAI titer EC > 90” value [2] was ““++++” (<50 “++++”)”.

With `Cc1cc(-c2cc(F)c(F)c(F)c2)ccc1[C@@H](O)[C@H]1O[C@H](CO)[C@@H](O)[C@H](O)[C@@H]1O` [Example 7, (2R,3S,4S,5S,6R)-2-((R)-Hydroxy(3′,4′,5′-trifluoro-3-methyl-[1,1′-biphenyl]-4-yl)methyl)-6-(hydroxymethyl)tetrahydro-2H-pyran-3,4,5-triol] the bioavailability [1] was over 30%, the Ue % po [1] was ““+++” (>5%)” and the AUC [1] was over 1 µM·h. The “HAI titer EC > 90” value [2] was ““++++” (<50 “++++”)”.

For `OC[C@H]1O[C@H]([C@H](O)c2ccc(-c3cc(F)cc(F)c3)cc2C(F)(F)F)[C@@H](O)[C@@H](O)[C@@H]1O` [Example 8, (2R,3S,4S,5S,6R)-2-((R)-(3′,5′-Difluoro-3-(trifluoromethyl)-[1,1′-biphenyl]-4-yl)(hydroxy)methyl)-6-(hydroxymethyl)tetrahydro-2H-pyran-3,4,5-triol], the bioavailability [1] was over 30%, the Ue % po [1] was ““++” (0.5 <= x <= 5%)” and the AUC [1] was under 0.5 µM·h. For the same compound, the “HAI titer EC > 90” value [2] was ““++++” (<50 “++++”)”.

With `Cc1cc(-c2cc(F)cc(F)c2)ccc1[C@@H](O)[C@H]1O[C@H](CO)[C@@H](O)[C@H](O)[C@@H]1O` [Example 9, (2R,3S,4S,5S,6R)-2-((R)-(3′,5′-Difluoro-3-methyl-[1,1′-biphenyl]-4-yl)(hydroxy)methyl)-6-(hydroxymethyl)tetrahydro-2H-pyran-3,4,5-triol] the bioavailability [1] was over 30%, the Ue % po [1] was ““+++” (>5%)” and the AUC [1] was 0.5 to 1 µM·h. The “HAI titer EC > 90” value [2] was ““++++” (<50 “++++”)”.

With `Cc1cc(F)c(-c2ccc([C@@H](O)[C@H]3O[C@H](CO)[C@@H](O)[C@H](O)[C@@H]3O)c(C)c2)cc1Cl` [Example 11] the “% F” value [1] was ““+++” (>30%)”, the Ue % po [1] was ““++” (0.5 <= x <= 5%)” and the “HAI titer EC > 90” value [2] was ““+++” (50-200 “+++”)”.

With `Cc1cc(-c2ccc(Cl)c(Cl)c2)ccc1[C@@H](O)[C@H]1O[C@H](CO)[C@@H](O)[C@H](O)[C@@H]1O` [Example 15] the “% F” value [1] was ““++” (10 <= x <= 30%)”, the Ue % po [1] was ““++” (0.5 <= x <= 5%)” and the “HAI titer EC > 90” value [2] was ““++++” (<50 “++++”)”.

For `Cc1cc(-c2cc(Cl)cc(Cl)c2)ccc1[C@@H](O)[C@H]1O[C@H](CO)[C@@H](O)[C@H](O)[C@@H]1O` [Example 16], the “% F” value [1] was ““++” (10 <= x <= 30%)”, the Ue % po [1] was ““++” (0.5 <= x <= 5%)” and the “HAI titer EC > 90” value [2] was ““++++” (<50 “++++”)”.

With `COc1cc(F)cc(-c2ccc([C@@H](O)[C@H]3O[C@H](CO)[C@@H](O)[C@H](O)[C@@H]3O)c(C)c2)c1` [Example 24] the “% F” value [1] was ““++” (10 <= x <= 30%)”, the Ue % po [1] was ““++” (0.5 <= x <= 5%)” and the “HAI titer EC > 90” value [2] was ““++++” (<50 “++++”)”.

For `OC[C@H]1O[C@H]([C@H](O)c2c(F)cc(-c3cc(F)cc(F)c3)cc2C(F)(F)F)[C@@H](O)[C@@H](O)[C@@H]1O` [Example 32], the “% F” value [1] was ““++” (10 <= x <= 30%)”, the Ue % po [1] was ““++” (0.5 <= x <= 5%)” and the “HAI titer EC > 90” value [2] was ““++++” (<50 “++++”)”.

With `COc1cc(-c2ccc([C@@H](O)[C@H]3O[C@H](CO)[C@@H](O)[C@H](O)[C@@H]3O)c(C)c2)cc(C(F)(F)F)c1` [Example 61] the “% F” value [1] was ““++” (10 <= x <= 30%)”, the Ue % po [1] was ““+” (<0.5%)” and the “HAI titer EC > 90” value [2] was ““++++” (<50 “++++”)”.

With `Cc1cc(-c2cc(F)c(C(F)(F)F)c(F)c2)ccc1[C@@H](O)[C@H]1O[C@H](CO)[C@@H](O)[C@H](O)[C@@H]1O` [Example 64] the “% F” value [1] was ““++” (10 <= x <= 30%)”, the Ue % po [1] was ““++” (0.5 <= x <= 5%)” and the “HAI titer EC > 90” value [2] was ““++++” (<50 “++++”)”.

For `Cc1cc(-c2cc(F)c(F)c(Cl)c2)ccc1[C@@H](O)[C@H]1O[C@H](CO)[C@@H](O)[C@H](O)[C@@H]1O` [Example 73], the “% F” value [1] was ““++” (10 <= x <= 30%)”, the Ue % po [1] was ““++” (0.5 <= x <= 5%)” and the “HAI titer EC > 90” value [2] was ““++++” (<50 “++++”)”.

For `Cc1cc(-c2cc(C(F)(F)F)cc(C(F)(F)F)c2)ccc1[C@@H](O)[C@H]1O[C@H](CO)[C@@H](O)[C@H](O)[C@@H]1O` [Example 74], the “% F” value [1] was ““++” (10 <= x <= 30%)”, the Ue % po [1] was ““+” (<0.5%)” and the “HAI titer EC > 90” value [2] was ““++++” (<50 “++++”)”.

For `Cc1cc(-c2cc(F)c(OC(C)C)c(F)c2)ccc1[C@@H](O)[C@H]1O[C@H](CO)[C@@H](O)[C@H](O)[C@@H]1O` [Example 93], the “% F” value [1] was ““++” (10 <= x <= 30%)”, the Ue % po [1] was ““+” (<0.5%)” and the “HAI titer EC > 90” value [2] was ““++++” (<50 “++++”)”.

For `CCc1c(F)cc(-c2ccc([C@@H](O)[C@H]3O[C@H](CO)[C@@H](O)[C@H](O)[C@@H]3O)c(C)c2)cc1F` [Example 94], the “% F” value [1] was ““++” (10 <= x <= 30%)”, the Ue % po [1] was ““+” (<0.5%)” and the “HAI titer EC > 90” value [2] was ““++++” (<50 “++++”)”.

With `Cc1cc(-c2cc(F)c(OC(F)(F)F)c(F)c2)ccc1[C@@H](O)[C@H]1O[C@H](CO)[C@@H](O)[C@H](O)[C@@H]1O` [Example 101] the “% F” value [1] was ““++” (10 <= x <= 30%)”, the Ue % po [1] was ““+” (<0.5%)” and the “HAI titer EC > 90” value [2] was ““++++” (<50 “++++”)”.
